According to patent US7807686B2, “2-(4-oxo-4H-quinazolin-3-yl)acetamides and their use as vasopressin V3 antagonists” (N.V. Organon, priority 2005, dated 2010):
Where a name gives a salt, the structure may show the parent alone.

Target: T1, human V3 receptor (Homo sapiens, UniProt P47901)
T1 construct: expressed in transfected cells
T1 sequence (P47901 1-424): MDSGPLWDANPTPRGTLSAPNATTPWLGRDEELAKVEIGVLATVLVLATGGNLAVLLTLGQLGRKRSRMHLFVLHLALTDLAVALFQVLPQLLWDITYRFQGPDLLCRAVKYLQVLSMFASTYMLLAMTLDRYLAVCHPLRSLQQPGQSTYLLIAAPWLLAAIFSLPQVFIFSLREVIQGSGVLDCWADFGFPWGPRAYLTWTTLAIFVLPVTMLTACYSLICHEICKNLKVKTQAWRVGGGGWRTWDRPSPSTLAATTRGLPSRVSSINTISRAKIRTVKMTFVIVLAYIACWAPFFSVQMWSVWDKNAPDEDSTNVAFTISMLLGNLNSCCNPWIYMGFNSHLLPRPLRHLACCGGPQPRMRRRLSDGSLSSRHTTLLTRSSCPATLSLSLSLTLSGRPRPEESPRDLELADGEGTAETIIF
Test: [3H]AVP binding to CHO cells stably expressing the human V3 receptor
Conditions: Ki from displacement of [3H]AVP (2.5×10^-9 mol.L^-1)
Description: Chinese Hamster Ovary (CHO) cells stably expressing the human V3 receptor were incubated to equilibrium with the test compound (at a final assay concentration of 10^−11 mol.L^−1 to 10^−5 mol.L^−1) and [^3H]AVP (at a final assay concentration of 2.5×10^−9 mol.L^−1). […] After washing with ice-cold phosphate buffered saline (PBS), scintillation fluid was added and the plates counted on a Topcount NXT apparatus.
A sigmoidal dose response curve (non-linear regression, variable slope) was plotted as concentration of test compound (mol.L^−1) against percentage specific binding of [^3H]AVP and a Ki value was calculated. Each determination was carried out in triplicate and repeated on at least 3 separate occasions

Compound	Ki [µM]
COc1cccc(-c2nc3ccc(OCCC4CCCCN4C)cc3c(=O)n2CC(=O)NC(C)C)c1 (stereo not drawn) [EXAMPLE 12a, N-Isopropyl-2-[2-(3-methoxyphenyl)-6-[2-(1-methylpiperidin-2-yl)ethoxy]-4-oxo-4H-quinazolin-3-yl]acetamide]	0.1 to 1
COc1cccc(-c2nc3ccc(-c4cccc(CN(C)CC(C)C)c4)cc3c(=O)n2CC(=O)NC(C)C)c1 [EXAMPLE 7p, 2-[6-{3-[(Isobutylmethylamino)methyl]phenyl}-2-(3-methoxyphenyl)-4-oxo-4H-quinazolin-3-yl]-N-isopropylacetamide]	0.01 to 0.1
COc1cccc(-c2nc3ccc(CCCCN4CCCC4)cc3c(=O)n2CC(=O)NC(C)C)c1 [EXAMPLE 11b, N-Isopropyl-2-[2-(3-methoxyphenyl)-4-oxo-6-(4-pyrrolidin-1-ylbutyl)-4H-quinazolin-3-yl]acetamide]	0.01 to 0.1
COc1cccc(-c2nc3ccc(OCC4CCCN(C)C4)cc3c(=O)n2CC(=O)NC(C)C)c1 (stereo not drawn) [EXAMPLE 14a, N-Isopropyl-2-[2-(3-methoxyphenyl)-6-(1-methylpiperidin-3-ylmethoxy)-4-oxo-4H-quinazolin-3-yl]acetamide]	0.1 to 1
COc1cccc(-c2nc3ccc(-c4cccc(CN(C)C)n4)cc3c(=O)n2CC(=O)NC(C)C)c1 [EXAMPLE 6b, 2-[6-(6-Dimethylaminomethylpyridin-2-yl)-2-(3-methoxyphenyl)-4-oxo-4H-quinazolin-3-yl]-N-isopropylacetamide]	0.01 to 0.1
O=C(Cn1c(-c2ccccc2)nc2ccc(OCCCN3CCCCCC3)cc2c1=O)NCC1CC1 [EXAMPLE 4q, 2-[6-(3-Azepan-1-ylpropoxy)-4-oxo-2-phenyl-4H-quinazolin-3-yl]-N-cyclopropylmethylacetamide]	0.1 to 1
COc1cccc(-c2nc3ccc(-c4ccc(CN5CCC5)o4)cc3c(=O)n2CC(=O)NC(C)C)c1 [EXAMPLE 9a, 2-[6-(5-Azetidin-1-ylmethylfuran-2-yl)-2-(3-methoxyphenyl)-4-oxo-4H-quinazolin-3-yl]-N-isopropylacetamide]	0.01 to 0.1
C=CCNC(=O)Cn1c(-c2ccccc2)nc2ccc(-c3cccc(CN4CCCCC4)c3)cc2c1=O [EXAMPLE 7x, N-Allyl-2-[4-oxo-2-phenyl-6-(3-piperidin-1-ylmethylphenyl)-4H-quinazolin-3-yl]acetamide]	0.1 to 1
COc1ccc(CN(CCCN2CCCCC2)c2ccc3nc(-c4cccc(OC)c4)n(CC(=O)NC(C)C)c(=O)c3c2)cc1 [EXAMPLE 3r, N-Isopropyl-2-[6-[(4-methoxybenzyl)-(3-piperidin-1-ylpropyl)amino]-2-(3-methoxyphenyl)-4-oxo-4H-quinazolin-3-yl]acetamide]	0.01 to 0.1
COc1cccc(-c2nc3ccc(NCCCN4CCCCC4)cc3c(=O)n2CC(=O)NC(C)C)c1 [EXAMPLE 13a, N-Isopropyl-2-[2-(3-methoxyphenyl)-4-oxo-6-(3-piperidin-1-ylpropylamino)-4H-quinazolin-3-yl]acetamide]	0.1 to 1
COc1cccc(-c2nc3ccc(OC[C@@H](C)CN4CCC4)cc3c(=O)n2CC(=O)NC(C)C)c1 [EXAMPLE 4i, (S)-(+)-2-[6-(3-Azetidin-1-yl-2-methylpropoxy)-2-(3-methoxyphenyl)-4-oxo-4H-quinazolin-3-yl]-N-isopropylacetamide]	0.01 to 0.1
CC(C)NC(=O)Cn1c(-c2cc(F)c(F)c(F)c2)nc2ccc(OCCCN3CCCCC3)cc2c1=O [EXAMPLE 1f, N-Isopropyl-2-[4-oxo-6-(3-piperidin-1-ylpropoxy)-2-(3,4,5-trifluorophenyl)-4H-quinazolin-3-yl]acetamide]	0.01 to 0.1
COc1cccc(-c2nc3ccc(SCCCN4CCCCC4)cc3c(=O)n2CC(=O)NC(C)C)c1 [EXAMPLE 3t, N-Isopropyl-2-[2-(3-methoxyphenyl)-4-oxo-6-(3-piperidin-1-ylpropylsulfanyl)-4H-quinazolin-3-yl]acetamide]	0.01 to 0.1

Now from value to compound:

Ki [µM]	Compound
< 0.01	CCCNC(=O)Cn1c(-c2cccc(OC)c2)nc2ccc(OC[C@@H](C)CN3CCCCC3)cc2c1=O [EXAMPLE 4n, (S)-(+)-2-[2-(3-Methoxyphenyl)-6-(2-methyl-3-piperidin-1-ylpropoxy)-4-oxo-4H-quinazolin-3-yl]-N-propylacetamide]
0.01 to 0.1	COc1cccc(-c2nc3ccc(/C=C/CCN4CCOCC4)cc3c(=O)n2CC(=O)NC(C)C)c1 [EXAMPLE 10b, N-Isopropyl-2-[2-(3-methoxyphenyl)-6-(4-morpholin-4-ylbut-1-enyl)-4-oxo-4H-quinazolin-3-yl]acetamide]
< 0.01	COc1cc(-c2nc3ccc(OCCCN4CCC(O)CC4)cc3c(=O)n2CC(=O)NC(C)C)ccc1F [EXAMPLE 2p, 2-{2-(4-Fluoro-3-methoxyphenyl)-6-[3-(4-hydroxypiperidin-1-yl)propoxy]-4-oxo-4H-quinazolin-3-yl}-N-isopropylacetamide]
< 0.01	CC(C)(C)NC(=O)Cn1c(-c2cccc(Cl)c2)nc2ccc(OCCCN3CCCCC3)cc2c1=O [EXAMPLE 2f, N-tert-Butyl-2-[2-(3-chlorophenyl)-4-oxo-6-(3-piperidin-1-ylpropoxy)-4H-quinazolin-3-yl]acetamide]
< 0.01	COc1cc(OC)cc(-c2nc3ccc(OCCCN4CCOCC4)cc3c(=O)n2CC(=O)NCC2CC2)c1 [EXAMPLE 3k, N-Cyclopropylmethyl-2-[2-(3,5-dimethoxyphenyl)-6-(3-morpholin-4-ylpropoxy)-4-oxo-4H-quinazolin-3-yl]acetamide]
< 0.01	COc1cccc(-c2nc3ccc(-c4cc(CN(C)C)ccc4F)cc3c(=O)n2CC(=O)NC(C)C)c1 [EXAMPLE 6a, 2-[6-(5-Dimethylaminomethyl-2-fluorophenyl)-2-(3-methoxyphenyl)-4-oxo-4H-quinazolin-3-yl]-N-isopropylacetamide]
< 0.01	COc1cccc(-c2nc3ccc(OCCCN4CCCCC4)cc3c(=O)n2CC(=O)NC(C)C)n1 [EXAMPLE 1h, N-Isopropyl-2-[2-(6-methoxypyridin-2-yl)-4-oxo-6-(3-piperidin-1-ylpropoxy)-4H-quinazolin-3-yl]acetamide]
< 0.01	CC(C)NC(=O)Cn1c(-c2cccc(Cl)c2)nc2ccc(OCCCN3CCCCC3)cc2c1=O [EXAMPLE 3a, 2-[2-(3-Chlorophenyl)-4-oxo-6-(3-piperidin-1-ylpropoxy)-4H-quinazolin-3-yl]-N-isopropylacetamide hydrochloride]
< 0.01	COc1cccc(-c2nc3cc(C)c(OCCCN4CCCCC4)cc3c(=O)n2CC(=O)NC(C)C)c1 [EXAMPLE 2w, N-Isopropyl-2-[2-(3-methoxyphenyl)-7-methyl-4-oxo-6-(3-piperidin-1-ylpropoxy)-4H-quinazolin-3-yl]acetamide]
< 0.01	COc1cccc(-c2nc3ccc(-c4cccc(CN5CCOCC5)c4)cc3c(=O)n2CC(=O)NC(C)C)c1 [EXAMPLE 7u, N-Isopropyl-2-[2-(3-methoxyphenyl)-6-(3-morpholin-4-ylmethylphenyl)-4-oxo-4H-quinazolin-3-yl]acetamide]
< 0.01	CC(C)NC(=O)Cn1c(-c2cccc(F)c2)nc2ccc(OC[C@@H](C)CN3CCOCC3)cc2c1=O [EXAMPLE 4g, (S)-(+)-2-[2-(3-Fluorophenyl)-6-(2-methyl-3-morpholin-4-ylpropoxy)-4-oxo-4H-quinazolin-3-yl]-N-isopropylacetamide]
